We go through eight compounds from ChEMBL document CHEMBL5257044, “Arylnaphthalene Lignans with Anti-SARS-CoV-2 and Antiproliferative Activities from the Underground Organs of Linum austriacum and Linum perenne” (J Nat Prod, 2023).

One series relates to Calu-1. Description: Cytotoxicity against human Calu-1 cells incubated for 24 hrs by AlamarBlue staining based analysis. The series is classed as functional, cell-based. As to conditions: Calu-1, 24 h.
Another series relates to PC-3. Description: Cytotoxicity against human PC-3 cells incubated for 24 hrs by AlamarBlue staining based analysis. The series is classed as functional, cell-based. The settings on record: PC-3, 24 h. (In general: Alamar Blue is a resazurin reagent that responds to reducing activity.)
Another series relates to NCI-H838. In words: Cytotoxicity against human NCI-H838 cells incubated for 24 hrs by AlamarBlue staining based analysis. The series is classed as functional, cell-based. The settings on record: NCI-H838, 24 h.
In another series the test system is EBC-1. In words: Cytotoxicity against human EBC-1 cells incubated for 24 hrs by AlamarBlue staining based analysis. As to conditions: EBC-1, 24 h. Type of series: functional, cell-based.
The next series deals with A2058. Description: Cytotoxicity against human A2058 cells incubated for 24 hrs by AlamarBlue staining based analysis. As to conditions: A2058, 24 h. Type of series: functional, cell-based.
For the next series, the system named is BGC-823. Description: Cytotoxicity against human BGC-823 cells assessed as reduction in cell viability measured after 4 days by MTT colorimetric assay. Type of series: functional, cell-based. The settings on record: BGC-823, 96 h. A general note: Formazan colour is commonly taken as a measure of viable cells.
Another series deals with HepG2. Description: Cytotoxicity against human HepG2 cells incubated for 24 hrs by AlamarBlue staining based analysis. The series is classed as functional, cell-based. The settings on record: HepG2, 24 h.
Series [1] relates to SARS-CoV-2. In words: Antiviral activity against SARS-COV2 EPI_ISL_1172022 infected in african green monkey Vero E6 cells assessed as log reduction in viable virus at 12.5 uM incubated for 48 hrs by RT-qPCR analysis. The series is classed as functional, Severe acute respiratory syndrome coronavirus 2.
The next series has as its system MONO-MAC-6. Description: Cytotoxicity against human MONO-MAC-6 cells incubated for 24 hrs by AlamarBlue staining based analysis. Type of series: functional, cell-based. As to conditions: MONO-MAC-6, 24 h.
Series [2] is described as follows: Cytotoxicity against human U87 cells incubated for 24 hrs by AlamarBlue staining based analysis. The series is classed as functional, cell-based, U-87MG ATCC. The settings on record: U-87 MG.
In series [3] the test system is A549. Description: Cytotoxicity against human A549 cells incubated for 24 hrs by AlamarBlue staining based analysis. The settings on record: A549, 24 h. Type of series: functional, cell-based.
The test system of series [4] is SARS-CoV-2. In words: Antiviral activity against SARS-COV2 EPI_ISL_1172022 infected in african green monkey Vero E6 cells assessed as inhibition of viral replication incubated for 48 hrs by RT-qPCR analysis. The series is classed as functional, organism-based. The settings on record: Severe acute respiratory syndrome coronavirus 2, EPI_ISL_1172022, Vero C1008, 48 h.

The test system of another series is HT-29. In words: Cytotoxicity against human HT-29 cells incubated for 24 hrs by AlamarBlue staining based analysis. As to conditions: HT-29, 24 h. The series is classed as functional, cell-based.
The next series concerns RPMI-8226. Description: Cytotoxicity against human RPMI-8226 cells assessed as reduction in cell viability measured after 72 hrs by MTT assay. Type of series: functional, cell-based. The settings on record: RPMI-8226, 72 h.
Series [5] concerns A549. In words: Cytotoxicity against human A549 cells incubated for 24 hrs by MTS assay. Type of series: functional, cell-based. The settings on record: A549, 24 h.
The subject of series [6] is A549. Description: Cytotoxicity against human A549 cells measured after 3 days by MTT assay. The settings on record: A549, 72 h. Type of series: functional, cell-based.
A further series has as its system TE-1. Description: Antiproliferative activity against human TE-1 cells measured after 2 days by CCK-8 method. The series is classed as functional, cell-based. As to conditions: TE-1, 48 h.
Series [7] is described as follows: Cytotoxicity against African green monkey Vero E6 cells incubated for 48 hrs by CCK-8 assay. The series is classed as toxicity, cell-based, Vero C1008. As to conditions: African green monkey (Chlorocebus sabaeus).
A further series relates to ECa-109 cell line. Description: Antiproliferative activity against human Eca-109 cells measured after 2 days by CCK-8 method. The series is classed as functional, cell-based. The settings on record: ECa-109, 48 h.
The test system of series [8] is SARS-CoV-2. In words: Antiviral activity against SARS-COV2 infected in african green monkey Vero E6 cells assessed as inhibition of viral replication incubated for 48 hrs by plague assay. The series is classed as functional, organism-based. The settings on record: Severe acute respiratory syndrome coronavirus 2, Vero C1008, 48 h.

Usually IC50 stands for the point on the concentration scale where inhibition reaches its midpoint.

With `COc1cc2cc3c(c(-c4ccc5c(c4)OCO5)c2cc1OC)C(=O)OC3`, the IC50 came to 18.5 µM with Calu-1; 5.7 µM in the series with PC-3; 11 µM in the series on NCI-H838; 63.2 µM with EBC-1; 8.9 µM with A2058; 0.18 µM in the series on BGC-823. Moreover, the IC50 is 16.8 µM in the series with HepG2; 2.5 µM in the series with MONO-MAC-6; 21.6 µM in series [2]; 11.4 µM in the series on A549 [3]; over 100 µM in the series with SARS-CoV-2 [4]; 5.9 µM with HT-29. For the same compound, in the series with RPMI-8226, the IC50 came to 0.17 µM. Also, the “log(activity)” value in the series with SARS-CoV-2 [1] is on record as over 3.
For the compound `COc1cc2cc(COC(=O)CC(=O)O)c(C(=O)O)c(-c3ccc4c(c3)OCO4)c2cc1OC`, the 50% inhibitory concentration (IC50) in the series on Calu-1 is over 100 µM; in the series on PC-3, 32.8 µM; in the series on NCI-H838, over 100 µM; in the series on EBC-1, 16 µM; in the series with A2058, 25.1 µM; with HepG2, over 100 µM. The IC50 with MONO-MAC-6 was 70.1 µM; in series [2], over 100 µM; in the series on A549 [3], over 100 µM; in the series on SARS-CoV-2 [4], over 100 µM; in the series on HT-29, over 100 µM.
As for `COc1cc2cc(COC(=O)CC(=O)O)c(C(=O)O[C@@H]3O[C@H](COC(=O)CC(C)(O)CC(=O)O)[C@@H](O)[C@H](O)[C@H]3O)c(-c3ccc4c(c3)OCO4)c2cc1OC` (some centres not stated), the concentration for half-maximal inhibition (IC50) is 67 µM in the series on Calu-1; 3.2 µM in the series with PC-3; 16 µM in the series on NCI-H838; 19.2 µM in the series on EBC-1; 2.4 µM in the series with A2058; over 100 µM in the series with HepG2. In addition, the IC50 is 7.1 µM in the series with MONO-MAC-6; over 100 µM in series [2]; 26.3 µM in the series on A549 [3]; over 100 µM in the series on SARS-CoV-2 [4]; 19.9 µM in the series on HT-29.
In the case of `CCN(CC)CCCC(C)Nc1ccnc2cc(Cl)ccc12` (configuration not stated) [CHLOROQUINE], in the series on SARS-CoV-2 [4], the IC50 came out at 50.2 µM.
In the case of `COc1cc2c(O)c3c(c(-c4ccc5c(c4)OCO5)c2cc1OC)C(=O)OC3` [DIPHYLLIN], the 50% inhibitory concentration (IC50) in the series with Calu-1 came to 31.8 µM; with PC-3, 3.8 µM; in the series on NCI-H838, 16 µM; in the series with EBC-1 it was 14.8 µM; in the series with A2058 it was 2.6 µM; in the series on A549 [5], 2.02 µM. Further, the IC50 in the series on A549 [6] worked out at 24 µM; in the series with HepG2 it was 21.6 µM; in the series with TE-1, 0.28 µM; in the series on ECa-109 cell line, 0.21 µM; in the series with MONO-MAC-6, 3.9 µM; in the series on SARS-CoV-2 [8], 1.92 µM. Moreover, the 50% inhibitory concentration (IC50) in [2] was 26.1 µM; in the series with A549 [3] it was 8.8 µM; with SARS-CoV-2 [4], over 100 µM; with HT-29 it was 19.5 µM. In addition, the IC50 at 48 h in series [7] was over 100 µM. Also, in the series with SARS-CoV-2 [1], the “log(activity)” value is listed as over 3.
As for `COc1cc([C@@H]2c3cc4c(cc3[C@@H](O[C@@H]3O[C@@H]5CO[C@@H](C)O[C@H]5[C@H](O)[C@H]3O)[C@H]3COC(=O)[C@H]23)OCO4)cc(OC)c1O` [ETOPOSIDE], the half-inhibitory concentration (IC50) with Calu-1 was over 100 µM; with PC-3 it was 8 µM; with NCI-H838 it was over 100 µM; in the series on EBC-1, 15.7 µM; in the series with A2058 it was 8.9 µM; in the series with HepG2, 20.9 µM. For the same compound, the IC50 in the series on MONO-MAC-6 was 2.2 µM; in series [2], 27 µM; in the series with A549 [3] it was over 100 µM; in the series with HT-29 it was 18.5 µM.
Turning to `CC(C)C(=O)OC[C@H]1O[C@@H](n2cc/c(=N\O)[nH]c2=O)[C@H](O)[C@@H]1O` [MOLNUPIRAVIR], the half-maximal inhibitory concentration (IC50) in the series with SARS-CoV-2 [4] is over 100 µM.
For the compound `CC(=O)Oc1ccccc1C(=O)Nc1ncc([N+](=O)[O-])s1` [NITAZOXANIDE], in the series with SARS-CoV-2 [4], the IC50 stood at 82.7 µM.
